In EP4667458A1 (Kanaph Therapeutics Inc., priority 2023, dated 2024):

Target: T1, SOS1 (Homo sapiens, UniProt Q07889)
T1 construct: adding equal amounts of HIS-SOS1cat (160 nM; Cytoskeleton, US); His; purchased Cytoskeleton, US
T1 sequence (Q07889 564-1049 limits assumed): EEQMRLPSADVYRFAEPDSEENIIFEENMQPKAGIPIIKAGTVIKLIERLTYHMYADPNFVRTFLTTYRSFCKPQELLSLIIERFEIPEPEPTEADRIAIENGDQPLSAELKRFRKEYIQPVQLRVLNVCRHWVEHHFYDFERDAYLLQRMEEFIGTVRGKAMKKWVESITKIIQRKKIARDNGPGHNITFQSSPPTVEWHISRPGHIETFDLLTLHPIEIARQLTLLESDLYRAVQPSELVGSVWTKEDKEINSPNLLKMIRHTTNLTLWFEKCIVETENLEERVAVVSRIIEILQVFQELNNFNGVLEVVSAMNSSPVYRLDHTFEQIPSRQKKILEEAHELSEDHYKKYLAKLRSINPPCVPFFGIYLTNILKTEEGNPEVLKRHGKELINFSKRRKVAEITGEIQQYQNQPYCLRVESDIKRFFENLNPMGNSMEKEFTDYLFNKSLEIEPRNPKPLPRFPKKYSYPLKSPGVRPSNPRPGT
Assay: SOS-catalyzed nucleotide exchange assay (HTRF, SOS1-mediated GTP loading of KRAS G12D)
Type: biochemical
Conditions: GST-KRAS G12D, HIS-SOS1cat, EDA-GTP-DY-647P1; compound 128 pM to 10 µM; read-out: SOS-catalyzed nucleotide exchange assay (IC50 range, Grade)
Experimental: SOS1 activity was measured by SOS1-mediated GTP loading quantification of KRAS^G12D. GTP-loaded KRAS^G12D was detected by HTRF (Homogeneous Time Resolved Fluorescence) using anti-GST terbium (Cisbio, France) as a donor and a fluorescence GTP analogue (EDA-GTP-DY-647P1, [DY-647P1-labeled 2'/3'-O-(2-aminoethyl-carbamoyl)guanosine-5'-triphosphate (Jena bioscience, Germany)]) as an acceptor.
Assay buffer was composed of 10 mM HEPES pH 7.4, 150 mM NaCl, 5 mM MgCl2, 1 mM DTT, 0.05% BSA Fraction V pH 7.0 (Sigma) and 0.0025% (v/v) Igepal (Sigma). KRAS^G12D working solution was prepared by adding equal amounts of GST-KRAS^G12D (100 nM) and anti-GST-terbium (2 nM; Cisbio, France) to the assay buffer and incubating on ice for 10 minutes. SOS1cat working solution was prepared by adding equal amounts of HIS-SOS1cat (160 nM; Cytoskeleton, US) and EDA-GTP-DY-647P1 (200 nM; Jena bioscience, Germany) to the assay buffer. Control solution was prepared by adding equal volumes of EDA-GTP-DY-647P1 and the assay buffer for normalization control to exclude GEF-independent GTP loading and background signals. In order to induce a reaction, 5 µL of the SOS1cat working solution or the control solution was injected into each well. 5 µL of a compound having various concentrations from 128 pM to 10 µM was added to wells containing the SOS1cat working solution and incubated at room temperature for 10 minutes to bind to SOS1.
10 µL of the KRAS^G12D solution was added to each well and incubated for 30 minutes at room temperature while shaking. HTRF was measured using a Thermo Varioskan (excitation 334 nm, emission 665 nm). The IC50 of each inhibitor was analyzed using Graphad Prism.
The SOS1 inhibitory activity of the Example compounds measured by the above method was evaluated based on the following criteria, and the results are shown in Table 29.

Compound	IC50 [nM]
Cc1cccc([C@@H](C)NC(=O)c2ccc(=O)n(-c3ccccc3)n2)c1 [Example 3, (R)-6-oxo-1-phenyl-N-(1-(m-tolyl)ethyl)-1,6-dihydropyridazine-3-carboxamide]	> 10000
C[C@@H](NC(=O)c1nn(-c2ccccc2)c(=O)cc1C1CC1)c1cc(N)cc(C(F)(F)F)c1 [Example 55, (R)-N-(1-(3-amino-5-(trifluoromethyl)phenyl)ethyl)-4-cyclopropyl-6-oxo-1-phenyl-1,6-dihydropyridazine-3-carboxamide]	< 1000
C[C@@H](NC(=O)c1ccc(=O)n(-c2ccccc2)n1)c1cccc(C#N)c1 [Example 4, (R)-N-(1-(3-cyanophenyl)ethyl)-6-oxo-1-phenyl-1,6-dihydropyridazine-3-carboxamide]	1000 to 10000
1-(1-acetylpiperidin-4-yl)-N-[(1R)-1-[3-amino-5-(trifluoromethyl)phenyl]ethyl]-6-oxo-1,6-dihydropyridazine-3-carboxamide [Example 118]	1000 to 10000
C[C@@H](NC(=O)c1ccc(=O)n(-c2ccccc2)c1)c1cc(N)cc(C(F)(F)F)c1 [Example 62, N-[(1R)-1-[3-amino-5-(trifluoromethyl)phenyl]ethyl]-6-oxo-1-phenylpyridine-3-carboxamide]	< 1000
C[C@@H](NC(=O)c1ccc(=O)n(-c2ccccc2)n1)c1cccc(S(C)(=O)=O)c1 [Example 11, N-[(1R)-1-(3-methylsulfonylphenyl)ethyl]-6-oxo-1-phenyl-pyridazine-3-carboxamide]	1000 to 10000
(R)-1-([1,1'-biphenyl]-4-yl)-N-(1-(3-amino-5-(trifluoromethyl)phenyl)ethyl)-6-oxo-1,6-dihydropyridazine-3-carboxamide [Example 24]	1000 to 10000
C[C@@H](NC(=O)c1ccc(=O)n(-c2cccc(C(=O)N(C)C)c2)n1)c1cc(N)cc(C(F)(F)F)c1 [Example 31, (R)-N-(1-(3-amino-5-(trifluoromethyl)phenyl)ethyl)-1-(3-(dimethylcarbamoyl)phenyl)-6-oxo-1,6-dihydropyridazine-3-carboxamide]	< 1000
COc1cccc(-n2nc(C(=O)N[C@H](C)c3cc(N)cc(C(F)(F)F)c3)ccc2=O)c1 [Example 40, N-[(1R)-1-[3-amino-5-(trifluoromethyl)phenyl]ethyl]-1-(3-methoxyphenyl)-6-oxo-pyridazine-3-carboxamide]	< 1000
C[C@@H](NC(=O)c1ccc(=O)n(-c2cccc(C(=O)N(C)C)c2)n1)c1cccc(C(F)(F)CO)c1F [Example 43, N-[(1R)-1-[3-(1,1-difluoro-2-hydroxy-ethyl)-2-fluorophenyl]ethyl]-1-[3-(dimethylcarbamoyl)phenyl]-6-oxo-pyridazine-3-carboxamide]	< 1000
Cc1cc(-n2nc(C(=O)N[C@H](C)c3cc(N)cc(C(F)(F)F)c3)ccc2=O)cs1 [Example 27, (R)-N-(1-(3-amino-5-(trifluoromethyl)phenyl)ethyl)-1-(5-methylthiophen-3-yl)-6-oxo-1,6-dihydropyridazine-3-carboxamide]	< 1000
COc1ccccc1-n1nc(C(=O)N[C@H](C)c2cc(N)cc(C(F)(F)F)c2)ccc1=O [Example 23, N-[(1R)-1-[3-amino-5-(trifluoromethyl)phenyl]ethyl]-1-(2-methoxyphenyl)-6-oxo-pyridazine-3-carboxamide]	< 1000
C[C@@H](NC(=O)c1ccc(=O)n(-c2ccccc2C#N)n1)c1cc(N)cc(C(F)(F)F)c1 [Example 29, N-[(1R)-1-[3-amino-5-(trifluoromethyl)phenyl]ethyl]-1-(2-cyanophenyl)-6-oxo-pyridazine-3-carboxamide]	< 1000
COc1ccccc1-n1nc(C(=O)N[C@H](C)c2cccc(C(F)(F)CO)c2)ccc1=O [Example 38, N-[(1R)-1-[3-(1,1-difluoro-2-hydroxyethyl)phenyl]ethyl]-1-(2-methoxyphenyl)-6-oxo-pyridazine-3-carboxamide]	< 1000
C[C@@H](NC(=O)c1ccc(=O)n(-c2cccc(S(C)(=O)=O)c2)n1)c1cccc(C(F)(F)CO)c1 [Example 58, N-[(1R)-1-[3-(1,1-difluoro-2-hydroxy-ethyl)phenyl]ethyl]-1-(3-methylsulfonylphenyl)-6-oxo-pyridazine-3-carboxamide]	< 1000
C[C@@H](NC(=O)c1ccc(=O)n(-c2ccccc2Cl)n1)c1cc(N)cc(C(F)(F)F)c1 [Example 32, (R)-N-(1-(3-amino-5-(trifluoromethyl)phenyl)ethyl)-1-(2-chlorophenyl)-6-oxo-1,6-dihydropyridazine-3-carboxamide]	< 1000
C[C@@H](NC(=O)c1ccc(=O)n(-c2cccc(NS(C)(=O)=O)c2)n1)c1cccc(C(F)(F)CO)c1 [Example 39, (R)-N-(1-(3-(1,1-difluoro-2-hydroxyethyl)phenyl)ethyl)-1-(3-(methylsulfonamido)phenyl)-6-oxo-1,6-dihydropyridazine-3-carboxamide]	< 1000

The remaining lines, values ahead:

IC50 [nM]	Compound
1000 to 10000	CC1CC=C(n2nc(C(=O)N[C@H](C)c3cc(N)cc(C(F)(F)F)c3)ccc2=O)CC1 (stereo partly drawn) [Example 66, N-[(1R)-1-[3-amino-5-(trifluoromethyl)phenyl]ethyl]-1-(4-methylcyclohex-1-en-1-yl)-6-oxo-1,6-dihydropyridazine-3-carboxamide]
< 1000	CNCc1ccc(Cl)cc1-c1cnc([C@@H](C)NC(=O)c2ccc(=O)n(-c3ccccc3F)c2)s1 [Example 138, N-[(1R)-1-[5-[5-chloro-2-(methylaminomethyl)phenyl]thiazol-2-yl]ethyl]-1-(2-fluorophenyl)-6-oxo-pyridine-3-carboxamide]
< 1000	CC(=O)Nc1cc(-n2cc(C(=O)N[C@H](C)c3cc(N)cc(C(F)(F)F)c3)ccc2=O)ccc1F [Example 113, 1-(3-acetamido-4-fluoro-phenyl)-N-[(1R)-1-[3-amino-5-(trifluoromethyl)phenyl]ethyl]-6-oxo-pyridine-3-carboxamide]
1000 to 10000	C[C@@H](NC(=O)c1ccc(=O)n([C@@H]2CCCC[C@H]2O)n1)c1cc(N)cc(C(F)(F)F)c1 [Example 124, N-((R)-1-(3-amino-5-(trifluoromethyl)phenyl)ethyl)-1-((1R,2R)-2-hydroxycyclohexyl)-6-oxo-1,6-dihydropyridazine-3-carboxamide]
< 1000	C[C@@H](NC(=O)c1ccc(=O)n(-c2cccc(F)c2F)c1)c1cc(N)cc(C(F)(F)F)c1 [Example 94, N-[(1R)-1-[3-amino-5-(trifluoromethyl)phenyl]ethyl]-1-(2,3-difluorophenyl)-6-oxo-1,6-dihydropyridine-3-carboxamide]
< 1000	C[C@@H](NC(=O)c1ccc(=O)n(-c2ccc(F)cc2F)c1)c1cc(N)cc(C(F)(F)F)c1 [Example 95, N-[(1R)-1-[3-amino-5-(trifluoromethyl)phenyl]ethyl]-1-(2,4-difluorophenyl)-6-oxo-1,6-dihydropyridine-3-carboxamide]
1000 to 10000	C[C@@H](NC(=O)c1ccc(=O)n(-c2c(F)cccc2F)c1)c1cc(N)cc(C(F)(F)F)c1 [Example 97, N-[(1R)-1-[3-amino-5-(trifluoromethyl)phenyl]ethyl]-1-(2,6-difluorophenyl)-6-oxo-1,6-dihydropyridine-3-carboxamide]
< 1000	CNCc1ccc(Cl)cc1-c1cnc([C@@H](C)NC(=O)c2ccc(=O)n(-c3ccccc3F)n2)s1 [Example 137, N-[(1R)-1-[5-[5-chloro-2-(methylaminomethyl)phenyl]thiazol-2-yl]ethyl]-1-(2-fluorophenyl)-6-oxo-pyridazine-3-carboxamide]
< 1000	C[C@@H](NC(=O)c1ccc(=O)n(C2=CCN(S(C)(=O)=O)CC2)c1)c1cc(N)cc(C(F)(F)F)c1 [Example 74, N-[(1R)-1-[3-amino-5-(trifluoromethyl)phenyl]ethyl]-1'-methanesulfonyl-6-oxo-2',3'-dihydro-1'H,6H,6'H-[1,4'-bipyridine]-3-carboxamide]
